From publication PMC3552057 (Biochemistry, 2013)

Target: T1, HpxO (Klebsiella pneumoniae, UniProt A6T923)
T1 sequence (A6T923 1-384): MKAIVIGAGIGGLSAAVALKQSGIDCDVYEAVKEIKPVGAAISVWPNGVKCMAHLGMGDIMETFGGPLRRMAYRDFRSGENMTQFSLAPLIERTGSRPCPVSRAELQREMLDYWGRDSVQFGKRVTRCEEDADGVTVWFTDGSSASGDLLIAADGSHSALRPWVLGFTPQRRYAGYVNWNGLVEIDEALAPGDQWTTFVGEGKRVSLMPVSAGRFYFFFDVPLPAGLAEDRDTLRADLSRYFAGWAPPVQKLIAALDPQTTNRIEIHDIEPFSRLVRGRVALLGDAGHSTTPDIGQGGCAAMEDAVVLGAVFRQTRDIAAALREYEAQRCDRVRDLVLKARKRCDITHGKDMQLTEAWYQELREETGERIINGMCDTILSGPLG
Assay: X-ray crystal structure, […] Å
Assay type: binding
Settings: SeMet HpxO without uric acid; FAD in the in conformation

## Cc1cc2nc3c(=O)[nH]c(=O)nc-3n(C[C@H](O)[C@H](O)[C@H](O)COP(=O)(O)OP(=O)(O)OC[C@H]3O[C@@H](n4cnc5c(N)ncnc54)[C@H](O)[C@@H]3O)c2cc1C [FAD]
  X-ray crystal structure, 2.2 Å: One FAD molecule binds to the HpxO monomer in an extended conformation
